# Reference: patent publication US20100298141A1, “SUBSTITUTED PYRIDINE N-OXIDE HERBICIDES” (E. I. DU PONT DE NEMOURS AND COMPANY, priority 2007, published 2010)
# Experiments:
# [1] = tested on: redroot pigweed; test: Test A pre-/postemergence greenhouse test; assay type: in vivo, Amaranthus retroflexus; conditions: for Pigweed plant response rating: 0 to 100 scale; for Plant response rating, Pigweed: 0 to 100 scale where 0 is no effect and 100 is complete control
# How it was run: (§1)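 Greenhouse herbicide screen, pre- and postemergence in parallel. Soil: loam plus sand. Formulation: non-phytotoxic solvent mix with surfactant. Postemergence stage: one to two leaves, 2–10 cm height. Evaluation: visual injury, compared with untreated controls, about 10 days after treatment.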
# [2] = tested on: corn; test: Test A pre-/postemergence greenhouse test; assay type: in vivo, Zea mays; conditions: for Corn plant response rating: 0 to 100 scale; for Plant response rating, Corn: 0 to 100 scale where 0 is no effect and 100 is complete control
# How it was run: as §1
# [3] = tested on: blackgrass; test: Test C pre-/postemergence test; assay type: in vivo, Alopecurus myosuroides; conditions: for Plant response rating (0 to 100), Blackgrass: 250 g ai/ha
# How it was run: (§2)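 Compounds in a non-phytotoxic solvent with surfactant applied preemergence to seeded pots and, at the same time, postemergence to plants 2–18 cm tall (1- to 4-leaf stage). Paddy tests: pots flooded to 3 cm, compound applied into the water, depth held throughout.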
# [4] = tested on: wheat; test: Test C pre-/postemergence test; assay type: in vivo, Triticum aestivum
# How it was run: as §2
# [5] = tested on: wild oat; test: Test C pre-/postemergence test; assay type: in vivo, Avena fatua
# How it was run: as §2
# [6] = tested on: catchweed bedstraw; test: Test C pre-/postemergence test; assay type: in vivo, Galium aparine
# How it was run: as §2
# [7] = tested on: bermudagrass; test: Test C pre-/postemergence test; assay type: in vivo, Cynodon dactylon; conditions: for Plant response rating (0 to 100), Bermudagrass: 250 g ai/ha
# How it was run: as §2
# [8] = tested on: Surinam grass; test: Test C pre-/postemergence test; assay type: in vivo, Brachiaria decumbens
# How it was run: as §2
# [9] = tested on: crabgrass; test: Test C pre-/postemergence test; assay type: in vivo, Digitaria sanguinalis; conditions: for Plant response rating (0 to 100), Crabgrass, Large: 250 g ai/ha
# How it was run: as §2
# [10] = tested on: kochia; test: Test C pre-/postemergence test; assay type: in vivo, Kochia scoparia
# How it was run: as §2
# [11] = tested on: eastern black nightshade; test: Test C pre-/postemergence test; assay type: in vivo, Solanum ptycanthum
# How it was run: as §2
# [12] = tested on: pigweed; test: Test C pre-/postemergence test; assay type: in vivo, Amaranthus retroflexus
# How it was run: as §2
# [13] = tested on: common (oilseed) sunflower; test: Test C pre-/postemergence test; assay type: in vivo, Helianthus annuus
# How it was run: as §2
# [14] = tested on: velvetleaf; test: Test C pre-/postemergence test; assay type: in vivo, Abutilon theophrasti
# How it was run: as §2
# [15] = tested on: rice; test: Test C flooded paddy test; assay type: in vivo, Oryza sativa; conditions: Flood
# How it was run: (§3)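 Test compounds are applied straight into paddy water held 3 cm above the soil surface, with that flood maintained for the whole test. After 13 to 15 days in the greenhouse, each species is scored visually relative to controls.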
# [16] = tested on: duck salad; test: Test C flooded paddy test; assay type: in vivo, Heteranthera limosa; conditions: Flood
# How it was run: as §3
# [17] = tested on: barnyardgrass; test: Test C flooded paddy test; assay type: in vivo, Echinochloa crus-galli; conditions: Flood
# How it was run: as §3
# [18] = Postemergence, 125 g ai/ha, 0 is no effect, 100 is complete control
# [19] = Postemergence, 500 g ai/ha, 0 is no effect, 100 is complete control
# [20] = Preemergence, 125 g ai/ha, 0 no effect, 100 complete control
# [21] = 62 g ai/ha, Preemergence, scale 0 to 100
# [22] = Preemergence, 31 g ai/ha, scale 0 to 100 (0 no effect, 100 complete control)
# [23] = preemergence, 125 g ai/ha, scale 0 (no effect) to 100 (complete control)
# [24] = 31 g ai/ha, scale 0 to 100 (0 no effect, 100 complete control)
# [25] = 62 g ai/ha, scale 0 to 100, 0 no effect, 100 complete control, 13 to 15 days
# [26] = 125 g ai/ha, scale 0 to 100, 0 no effect, 100 complete control, 13 to 15 days
# [27] = 250 g ai/ha, scale 0 to 100, 0 no effect, 100 complete control, 13 to 15 days
# [28] = 31 g ai/ha, Preemergence, scale 0 to 100
# [29] = 62 g ai/ha, preemergence, scale 0 (no effect) to 100 (complete control)
# [30] = 250 g ai/ha, scale 0 to 100 (0 no effect, 100 complete control)
smiles,measurement,setting,value
Cn1nc(C(F)(F)F)c(C[S+]([O-])c2cc(C(F)(F)F)cc[n+]2[O-])c1Cl (racemic) [Compound 34],Pigweed plant response rating,[1]; [18],60
same,Pigweed plant response rating,[1]; [19],70
same,Pigweed plant response rating,[1]; [20],100
same,"Plant response rating, Pigweed","[1]; Preemergence, 500 g ai/ha",100
same,Corn plant response rating,[2]; [18],0
same,Corn plant response rating,[2]; [19],20
same,Corn plant response rating,[2]; [20],0
same,"Plant response rating, Corn","[2]; Preemergence, 500 g ai/ha",0
same,Blackgrass plant response rating,[3]; [21],30
same,"Plant response rating, Blackgrass",[3]; [22],30
same,"Plant response rating (0 to 100), Blackgrass",[3]; Preemergence,65
same,Blackgrass plant response rating,[3]; [23],50
same,Wheat plant response rating,[4]; [21],10
same,"Plant response rating, Wheat",[4]; [22],0
same,"Oat, Wild plant response rating",[5]; [21],40
same,"Plant response rating, Oat, Wild",[5]; [22],0
same,"Plant response rating, Galium",[6]; [22],0
same,"Plant response rating (0 to 100), Galium","[6]; Preemergence, 250 g ai/ha",100
same,Bermudagrass plant response rating,"[7]; 62 g ai/ha, Preemergence, scale 0 to 100 (0 no effect, 100 complete control)",100
same,"Plant response rating, Bermudagrass",[7]; [22],75
same,"Plant response rating (0 to 100), Bermudagrass",[7]; Preemergence,100
same,Bermudagrass plant response rating,[7]; [23],100
same,Surinam Grass plant response rating,[8]; [21],0
same,"Plant response rating, Surinam Grass",[8]; [22],0
same,"Crabgrass, Large plant response rating",[9]; [21],100
same,"Plant response rating, Crabgrass, Large",[9]; [22],98
same,"Plant response rating (0 to 100), Crabgrass, Large",[9]; Preemergence,100
same,Kochia plant response rating,[10]; [21],0
same,"Plant response rating, Kochia",[10]; [22],0
same,Nightshade plant response rating,[11]; [21],100
same,"Plant response rating, Nightshade",[11]; [22],85
same,Pigweed plant response rating,[12]; [21],100
same,"Plant response rating, Pigweed",[12]; [22],100
same,Sunflower plant response rating,[13]; [21],0
same,"Plant response rating, Sunflower",[13]; [22],0
same,Velvetleaf plant response rating,[14]; [21],70
same,"Plant response rating, Velvetleaf",[14]; [22],40
same,"Plant response rating, Rice",[15]; [24],0
same,"Plant response rating, Rice",[15]; [25],0
same,"Plant response rating, Rice",[15]; [26],0
same,"Plant response rating, Rice",[15]; [27],40
same,"Plant response rating, Ducksalad",[16]; [24],0
same,"Plant response rating, Ducksalad",[16]; [25],75
same,"Plant response rating, Ducksalad",[16]; [26],80
same,"Plant response rating, Ducksalad",[16]; [27],85
same,"Plant response rating, Barnyardgrass",[17]; [24],0
same,"Plant response rating, Barnyardgrass",[17]; [25],0
same,"Plant response rating, Barnyardgrass",[17]; [26],0
same,"Plant response rating, Barnyardgrass",[17]; [27],30
Cn1nc(C(F)(F)F)c(C[S+]([O-])c2cccc[n+]2[O-])c1Cl (stereo not shown) [Compound 8],Pigweed plant response rating,[1]; [18],20
same,Pigweed plant response rating,[1]; [19],60
same,Pigweed plant response rating,[1]; [20],100
same,"Plant response rating, Pigweed","[1]; Preemergence, 500 g ai/ha",100
same,Corn plant response rating,[2]; [18],50
same,Corn plant response rating,[2]; [19],60
same,Corn plant response rating,[2]; [20],20
same,"Plant response rating, Corn","[2]; Preemergence, 500 g ai/ha",70
same,Blackgrass plant response rating,[3]; [28],0
same,Blackgrass plant response rating,[3]; [29],0
same,"Plant response rating (0 to 100), Blackgrass",[3]; Preemergence,100
same,Blackgrass plant response rating,[3]; [23],100
same,Wheat plant response rating,[4]; [29],30
same,"Plant response rating (0 to 100), Wheat","[4]; Preemergence, 250 g ai/ha",80
same,Wheat plant response rating,[4]; [23],50
same,"Oat, Wild plant response rating",[5]; [28],0
same,"Oat, Wild plant response rating",[5]; [29],20
same,"Plant response rating (0 to 100), Oat, Wild","[5]; Preemergence, 250 g ai/ha",60
same,"Oat, Wild plant response rating",[5]; [23],40
same,Galium plant response rating,[6]; [28],0
same,Galium plant response rating,[6]; [29],100
same,Galium plant response rating,[6]; [23],100
same,Bermudagrass plant response rating,[7]; [28],80
same,Bermudagrass plant response rating,[7]; [29],100
same,"Plant response rating (0 to 100), Bermudagrass",[7]; Preemergence,100
same,Bermudagrass plant response rating,[7]; [23],100
same,Surinam Grass plant response rating,[8]; [29],85
same,"Plant response rating (0 to 100), Surinam Grass","[8]; Preemergence, 250 g ai/ha",100
same,Surinam Grass plant response rating,[8]; [23],100
same,"Crabgrass, Large plant response rating",[9]; [28],90
same,"Crabgrass, Large plant response rating",[9]; [29],100
same,"Plant response rating (0 to 100), Crabgrass, Large",[9]; Preemergence,100
same,"Crabgrass, Large plant response rating",[9]; [23],100
same,Kochia plant response rating,[10]; [28],40
same,Kochia plant response rating,[10]; [29],45
same,"Plant response rating (0 to 100), Kochia","[10]; Preemergence, 250 g ai/ha",100
same,Kochia plant response rating,[10]; [23],100
same,Nightshade plant response rating,[11]; [28],80
same,Nightshade plant response rating,[11]; [29],85
same,"Plant response rating (0 to 100), Nightshade","[11]; Preemergence, 250 g ai/ha",100
same,Nightshade plant response rating,[11]; [23],100
same,Pigweed plant response rating,[12]; [28],85
same,Pigweed plant response rating,[12]; [29],100
same,"Plant response rating (0 to 100), Pigweed","[12]; Preemergence, 250 g ai/ha",100
same,Pigweed plant response rating,[12]; [23],100
same,Sunflower plant response rating,[13]; [29],30
same,"Plant response rating (0 to 100), Sunflower","[13]; Preemergence, 250 g ai/ha",100
same,Sunflower plant response rating,[13]; [23],60
same,Velvetleaf plant response rating,[14]; [29],45
same,"Plant response rating (0 to 100), Velvetleaf","[14]; Preemergence, 250 g ai/ha",100
same,Velvetleaf plant response rating,[14]; [23],98
same,"Plant response rating, Rice",[15]; [24],0
same,"Plant response rating, Rice",[15]; [25],0
same,"Plant response rating, Rice",[15]; [26],0
same,"Plant response rating, Rice",[15]; [30],20
same,"Plant response rating, Ducksalad",[16]; [24],0
same,"Plant response rating, Ducksalad",[16]; [25],0
same,"Plant response rating, Ducksalad",[16]; [26],50
same,"Plant response rating, Ducksalad",[16]; [30],90
same,"Plant response rating, Barnyardgrass",[17]; [24],0
same,"Plant response rating, Barnyardgrass",[17]; [25],0
same,"Plant response rating, Barnyardgrass",[17]; [26],40
same,"Plant response rating, Barnyardgrass",[17]; [30],85
